# Experimental data published in patent US9556139B2, “6-substituted phenoxychroman carboxylic acid derivatives” (Array BioPharma Inc., priority 2008, dated 2017).
# Read-outs that look alike come from different tables or passages of the source.
# Molecular target: human DP2 (Homo sapiens (Human), UniProt Q9Y5Y4)
# Experiment: DP-2 Binding Inhibition Assay (3H-PGD2 binding to membranes of K562 cells expressing DP2)
# Settings: inhibition of 3H-PGD2 binding
# In short: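 Membranes from K562 stably expressing DP2, incubated 60 min at room temperature with ³H-PGD2 and compound in Tris pH 7.4 buffer with 0.1% BSA, 1% HSA or 4% HSA; filtration read-out. Nonspecific binding: 1 μM unlabeled PGD2 or 5 μM known antagonist. EC50 from 4-parameter logistic fit.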
# [1] = read-out: EC50 (nM) 4% HSA, 4% HSA
# [2] = read-out: EC50 (Nm) 1% HSA, 1% HSA
# Chain of human DP2 (Q9Y5Y4 whole entry): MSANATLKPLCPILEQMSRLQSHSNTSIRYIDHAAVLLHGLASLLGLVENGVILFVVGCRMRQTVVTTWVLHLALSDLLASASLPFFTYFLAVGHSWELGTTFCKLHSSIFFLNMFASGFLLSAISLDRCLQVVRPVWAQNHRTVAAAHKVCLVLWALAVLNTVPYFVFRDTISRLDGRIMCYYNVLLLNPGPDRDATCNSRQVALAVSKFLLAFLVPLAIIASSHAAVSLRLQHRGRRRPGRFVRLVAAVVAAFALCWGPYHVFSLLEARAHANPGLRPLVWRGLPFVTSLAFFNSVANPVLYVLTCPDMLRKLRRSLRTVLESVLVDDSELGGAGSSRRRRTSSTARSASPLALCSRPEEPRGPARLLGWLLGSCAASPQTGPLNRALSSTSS
Structure (SMILES),EC50 [1],EC50 [2]
"N#Cc1cc2c(cc1Oc1ccc(C(=O)NOCc3ccc(Cl)cc3)cc1)OCCC2C(=O)O (stereo not shown) [Example 7, 7-(4-(4-Chlorobenzyloxycarbamoyl)phenoxy)-6-cyanochroman-4-carboxylic acid]",–,19 nM
"COc1cc(F)ccc1CCNC(=O)c1ccc(Oc2cc3c(cc2Cl)C(C(=O)O)CCO3)cc1 (stereo not shown) [Example 101, Sodium 6-chloro-7-(4-(4-fluoro-2-methoxyphenethylcarbamoyl)phenoxy)chroman-4-carboxylate]",292 nM,–
"N#Cc1cc2c(cc1Oc1ccc(C(=O)Nc3ccc(Cl)c(Cl)c3)cc1)OCCC2C(=O)O (stereo not shown) [Example 8, 6-Cyano-7-(4-(3,4-dichlorophenylcarbamoyl)phenoxy)chroman-4-carboxylic acid]",–,16 nM
"N#Cc1cc2c(cc1Oc1ccc(C(=O)NCCc3ccc(C(F)(F)F)cc3)cc1)OCCC2C(=O)O (stereo not shown) [Example 50, 7-(4-((4-(Trifluoromethyl)phenethyl)carbamoyl)phenoxy)-6-cyano-3,4-dihydro-2H-chromene-4-carboxylic acid]",–,11 nM
"COc1cc(C2CC2)ccc1CCNC(=O)c1ccc(Oc2cc3c(cc2Cl)C(C(=O)O)CCO3)cc1 (stereo not shown) [Example 36, Sodium 6-chloro-7-(4-(4-cyclopropyl-2-methoxyphenethylcarbamoyl)phenoxy)chroman-4-carboxylate]",93 nM,17.3 nM
"N#Cc1cc2c(cc1Oc1ccc(C(=O)NCc3cccc4ccccc34)cc1)OCCC2C(=O)O (stereo not shown) [Example 54, 6-Cyano-7-(4-(naphthalen-1-ylmethylcarbamoyl)phenoxy)chroman-4-carboxylic acid]",–,109 nM

# More lines, now with the values ahead:
EC50 [1],EC50 [2],Structure (SMILES)
111 nM,–,"O=C(NCCc1ccc(Cl)cc1OCC1CC1)c1ccc(Oc2cc3c(cc2Cl)C(C(=O)O)CCO3)cc1 (stereo not shown) [Example 199, sodium 6-chloro-7-(4-(4-chloro-2-(cyclopropyl-methoxy)phenethylcarbamoyl)phenoxy)chroman-4-carboxylate]"
112 nM,–,"CC(C)(C)c1cccc(NC(=O)c2ccc(Oc3cc4c(cc3C#N)C(C(=O)O)CCO4)cc2)c1 (stereo not shown) [Example 134, 7-(4-(3-tert-Butylphenylcarbamoyl)phenoxy)-6-cyanochroman-4-carboxylic acid]"
723 nM,–,"COc1ccc(C2CCC(NC(=O)c3ccc(Oc4cc5c(cc4Cl)C(C(=O)O)CCO5)cc3)C2)cc1 (stereo not shown) [Example 174, Sodium 6-chloro-7-(4-(3-(4-methoxyphenyl)cyclopentylcarbamoyl)phenoxy)chroman-4-carboxylate]"
240 nM,–,"O=C(NCCc1ccc(SC(F)(F)F)cc1)c1ccc(Oc2cc3c(cc2Cl)C(C(=O)O)CCO3)cc1 (stereo not shown) [Example 147, Sodium 6-chloro-7-(4-(4-(trifluoromethylthio)phenethylcarbamoyl)phenoxy)chroman-4-carboxylate]"
88.9 nM,–,"CCOc1cc(OC)ccc1CCNC(=O)c1ccc(Oc2cc3c(cc2Cl)C(C(=O)O)CCO3)cc1 (stereo not shown) [Example 228, 6-chloro-7-(4-(2-ethoxy-4-methoxyphenethylcarbamoyl)phenoxy)chroman-4-carboxylic acid]"
115 nM,–,"Cc1ccc(-c2cccc(NC(=O)c3ccc(Oc4cc5c(cc4C#N)C(C(=O)O)CCO5)cc3)c2)cc1 (stereo not shown) [Example 107, 6-Cyano-7-(4-(4′-methylbiphenyl-3-ylcarbamoyl)phenoxy)chroman-4-carboxylic acid]"
